Test [1] concerns the target T1, farnesyl protein transferase (FPT), partially purified from rat brain (Rattus norvegicus, UniProt Q02293+Q04631).
T1 construct: were partially purified from rat brain by ammonium sulfate fractionation followed by Q-Sepharose
Put plainly: Inhibition of farnesyl protein transferase (transfer of [3H]farnesyl to Ras-CVLS). The class given is biochemical. The conditions noted are these: partially purified rat brain FPT. The essentials:
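Transfer of [3H]farnesyl onto E. coli-expressed, His6-tagged Ras-CVLS was measured after 30 min at room temperature. Radiolabelled Ras was TCA-precipitated on ice and filter-harvested, and inhibition was expressed as percent of DMSO control.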

The test system of test [2] is T24-BAG4 human bladder carcinoma cells expressing an activated H-ras gene. Kind of test: Cell Mat Assay: tumor cell colony inhibition (tIC50). The class given is cell-based. Conditions: inhibition of tumor cell growth. As to the method:
(§1) Compound-induced colony inhibition was assayed by addition of serial dilutions of compound directly to the growth medium 24 h after tumor cell planting, and incubating cells for an additional 14 d to allow colony formation. Assays were terminated by rinsing monolayers twice with phosphate-buffered saline (PBS), fixing the monolayers with a 1% glutaraldehyde solution in PBS, then visualizing tumor cells by staining with X-Gal (Price, J., et al., Lineage analysis in the vertebrate nervous system by retrovirus-mediated gene transfer, Proc. Natl. Acad. Sci.84, 156-160(1987)). […] Both IC50 values were obtained by determining the density of tumor cells and mat cells by visual inspection and enumeration of cells per colony and the number of colonies under the microscope.

For test [3], the system named is Normal human HEPM fibroblasts. Kind of test: Cell Mat Assay: density of mat cells (mIC50). Conditions: Homo sapiens, Fibroblast. The class given is cell-based. How it is done: as §1
Setting [4] is: FPT IC50, Ras-CVLS farnesylation.
The mark [5] stands for this setting: Ras-CVLS farnesylation, read-out: FPT IC50.

Where two headings read alike, the source gives them in different places.

T1 sequence (Q02293 whole entry, one chain of several): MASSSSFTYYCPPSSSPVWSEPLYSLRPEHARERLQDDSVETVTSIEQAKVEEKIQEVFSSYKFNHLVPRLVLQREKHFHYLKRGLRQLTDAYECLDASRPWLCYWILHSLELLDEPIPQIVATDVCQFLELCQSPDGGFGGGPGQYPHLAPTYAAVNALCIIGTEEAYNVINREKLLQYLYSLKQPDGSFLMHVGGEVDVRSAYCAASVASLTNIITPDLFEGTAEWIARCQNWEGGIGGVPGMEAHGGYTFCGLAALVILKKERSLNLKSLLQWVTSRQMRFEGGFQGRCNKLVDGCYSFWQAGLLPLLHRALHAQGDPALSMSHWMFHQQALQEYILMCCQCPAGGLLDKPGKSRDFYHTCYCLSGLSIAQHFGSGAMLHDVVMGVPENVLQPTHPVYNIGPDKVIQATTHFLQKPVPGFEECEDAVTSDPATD

`O=C(Cc1ccccc1)N1CCN(C2c3ccc(Cl)cc3CCc3cccnc32)CC1` (stereo not shown) [Example 80]: the values for the IC50 in test [1] (setting [4]), in test [2] (Homo sapiens) and in test [3] were 2.73 µM, > 50 µM and > 50 µM, respectively.
In the case of `CC(S)C(=O)NCC(=O)N1CCN(C2c3ccc(Cl)cc3CCc3cccnc32)CC1` (stereo not shown) [Example 81], the IC50 (in general, the concentration that inhibits the measured activity by half) in test [1] (setting [5]) was 2.78 µM; in test [2] (Homo sapiens), > 50 µM; in test [3], > 50 µM.
For the compound `NS(=O)(=O)c1ccc(C(=O)N2CCC(=C3c4ccc(Cl)cc4CCc4cccnc43)CC2)cc1` [Example 90], the half-inhibitory concentration (IC50) was 3.4 µM in test [1] (setting [5]), 50 µM in test [2] (Homo sapiens) and > 50 µM in test [3].
As for `CS(=O)(=O)Nc1ccc(C(=O)N2CCC(=C3c4ccc(Cl)cc4CCc4cccnc43)CC2)cc1` [Example 91], the half-maximal inhibitory concentration (IC50) in test [1] (setting [5]) is 3.9 µM; in test [2] (Homo sapiens) it was 50 µM; in test [3], 80 µM.
Regarding `CS(=O)(=O)c1ccc(C(=O)N2CCC(=C3c4ccc(Cl)cc4CCc4cccnc43)CC2)cc1` [Example 93], the half-inhibitory concentration (IC50) in test [1] (setting [5]) was 3.9 µM; in test [2] (Homo sapiens), 40 µM; in test [3], > 50 µM.
For the compound `C[S+]([O-])c1ccc(C(=O)N2CCC(=C3c4ccc(Cl)cc4CCc4cccnc43)CC2)cc1` (stereo not shown) [Example 94], the results for the 50% inhibitory concentration (IC50) in test [1] (setting [5]), in test [2] (Homo sapiens) and in test [3] were 4 µM, 40 µM and 80 µM, respectively.
Regarding `O=C(C1CCS(=O)(=O)CC1)N1CCC(=C2c3ccc(Cl)cc3CCc3cccnc32)CC1` [Example 95], the IC50 in test [1] (setting [5]) is 4.2 µM; in test [2] (Homo sapiens), > 50 µM; in test [3] it was > 50 µM.
Take `O=C(/C=C/c1cccnc1)N1CCC(=C2c3ccc(Cl)cc3CCc3cccnc32)CC1` [Example 96]: the half-inhibitory concentration (IC50) in test [1] (setting [5]) was 4.3 µM; in test [2] (Homo sapiens), 50 µM; in test [3], > 50 µM.
The corresponding values for `O=C(C1CCC(O)CC1)N1CCC(=C2c3ccc(Cl)cc3CCc3cccnc32)CC1` (stereo not shown) [Example 97] are 4.4 µM, > 50 µM and > 50 µM.
On to `O=C(c1ccc(Cl)nc1)N1CCC(=C2c3ccc(Cl)cc3CCc3cccnc32)CC1` [Example 98], for which the IC50 in test [1] (setting [5]) is 4.4 µM; in test [2] (Homo sapiens), 50 µM; in test [3], > 50 µM.
Regarding `S=C(c1ccccc1)N1CCC(=C2c3ccc(Cl)cc3CCc3cccnc32)CC1` [Example 121], the IC50 was 1.4 µM in test [1] (setting [5]), 50 µM in test [2] (Homo sapiens) and > 50 µM in test [3].
With `O=C(Cc1ccccc1[N+](=O)[O-])N1CCC(=C2c3ccc(Cl)cc3CCc3cccnc32)CC1` [Example 126], the IC50 in test [1] (setting [5]) is 2.9 µM; in test [2] (Homo sapiens), 50 µM; in test [3], > 50 µM.
`O=C(Cc1ccc(O)cc1)N1CCC(=C2c3ccc(Cl)cc3CCc3cccnc32)CC1` [Example 128]: the IC50 was 3 µM in test [1] (setting [5]), 25 µM in test [2] (Homo sapiens) and > 50 µM in test [3].
Consider `O=C(Nc1ccccc1)N1CCN(C2c3ccc(Cl)cc3CCc3cccnc32)CC1` (stereo not shown) [Example 182], for which the IC50 was 1.09 µM in test [1] (setting [5]), 37 µM in test [2] (Homo sapiens) and > 50 µM in test [3].
Regarding `CN(C)c1ccc(CC(=O)N2CCN(C3c4ccc(Cl)cc4CCc4cccnc43)CC2)cc1` (stereo not shown) [Example 189], the results for the concentration for half-maximal inhibition (IC50) in test [1] (setting [4]), in test [2] (Homo sapiens) and in test [3] were 2.44 µM, 37 µM and > 50 µM, respectively.
As to `CC(C)(C(=O)N1CCN(C2c3ccc(Cl)cc3CCc3cccnc32)CC1)c1ccccc1` (stereo not shown) [Example 190], the half-inhibitory concentration (IC50) is 3.3 µM in test [1] (setting [5]), > 50 µM in test [2] (Homo sapiens) and > 50 µM in test [3].
Turning to `CC(C(=O)N1CCN(C2c3ccc(Cl)cc3CCc3cccnc32)CC1)c1cccnc1` (stereo not shown) [Example 191], the IC50 in test [1] (setting [5]) is 4.9 µM; in test [2] (Homo sapiens) it was < 3.1 µM; in test [3], 50 µM.
Take `O=C(Cc1ccccn1)N1CCN(C2c3ccc(Cl)cc3CCc3cccnc32)CC1` (stereo not shown) [Example 196]: the concentration for half-maximal inhibition (IC50) in test [1] (setting [4]) is 0.36 µM; in test [2] (Homo sapiens) it was 37 µM; in test [2] (listed as 196 (5.69)), 25 µM; in test [3] it was > 50 µM.

(Values after patent US20030055065A1, “Tricyclic amide and urea compounds useful for inhibition of G-protein function and for treatment of proliferative diseases” (priority 1993, published 2003).)
